In data set [1] the test system is Panc1 cells. In words: 72-hour dose-response cell viability assay (CellTiter-Glo). The class given is cell-based. The conditions noted are these: Homo sapiens, PANC-1, Panc1 PDAC cells. From the text: (§1) PDAC cells are sensitive to chemical inhibition of CPSF3. CPSF3 was recently identified as the target for the small molecule JTE-607. JTE-607 is a prodrug that, when metabolized by the ester hydrolyzing enzyme carboxylesterase 1 (CES1), binds to CPSF3 and inhibits its catalytic activity, impairing the processing of newly synthesized mRNAs. As genetic depletion of CPSF3 attenuated PDAC cell proliferation (FIG. 1), it 2as hypothesized that pharmacologic inhibition of CPSF3 with JTE-607 could represent a novel therapeutic approach in PDAC. The sensitivity of multiple human pancreatic cell lines, both non-transformed and PDAC, to JTE-607 in a 72-hour dose-response cell viability assay was examined. […] To examine if sensitivity to CPSF3 inhibition was associated with proliferation rate, the relationship between cell line doubling time and JTE-607 sensitivity was assessed. […] Next, the effect of JTE-607 on cell proliferation by treating cells with increasing concentrations of JTE-607 and assessing cell viability in a time-dependent fashion (FIGS. 2C-2E) was determined. […] Finally, the effect of JTE-607 on colony formation in PDAC cell lines was tested. […] Therefore, JTE-607 selectively attenuates proliferation of PDAC cells over non-transformed pancreatic cells.
(§2) JTE-607 studies. For dose-response measurements, cells were seeded at a density of 1000 cells per well in a 96-well white plate. The next day, JTE-607 was titrated over a range of concentrations using the Tecan D300e Digital Dispenser and cell viability was measured 72 hours post drug titration using a CellTiter-Glo Luminescent Cell Viability Assay Kit (Promega). For cell proliferation experiments, cells were seeded at a density of 250 cells per well in a 96-well white plate. DMSO control or JTE-607 was dispensed at varying concentrations and proliferation was measured using CellTiter-Glo Assay at days 0, 2, 4 and 6. For clonogenicity experiments, cells were seeded at a concentration of 500 cells per well and treated with different concentrations of JTE-607. Cells were allowed to grow over a period of 11-14 days after which they were fixed in 10% formalin, stained with 0.2% Crystal Violet and images were obtained for analysis. Colony area was measured using ImageJ software. Data were normalized to DMSO control data points.

Another data set relates to HPDE cells. The description is as above. It counts as cell-based. The conditions noted are these: Homo sapiens, HPDE non-transformed pancreatic epithelial cells.
Excerpt: as §1, §2

For data set [2], the system named is HPNE cells. The data set is described as above. The class given is cell-based. The conditions noted are these: Homo sapiens, HPNE non-transformed pancreatic epithelial cells.
Excerpt: as §1, §2

Another data set deals with PancPat CAFs. The description is as above. It counts as cell-based. Particulars: Fibroblast, PancPat CAFs human cancer associated fibroblasts.
Excerpt: as §1, §2

The test system of the next data set is C7 CAF. The description is as above. The class given is cell-based. The conditions noted are these: Fibroblast, C7 CAF human cancer associated fibroblasts.
Excerpt: as §1, §2

For data set [3], the system named is Panc1 cells. In words: Western blot of histone protein levels. It counts as cell-based, human. The conditions noted are these: dose- and time-dependent.
The subject of data set [4] is Panc1 cells. Kind of data set: Cell proliferation time course (CellTiter-Glo, days 0, 2, 4, 6). It counts as cell-based, human. Particulars: increasing concentrations, days 0-6, dose-dependent.
Excerpt: as §1
as §2, with “Cells were allowed to grow over a period of 11-14 days after which they were fixed in 10% formalin, stained with 0.2% Crystal Violet and images were obtained for analysis.” left out, “Data were normalized to DMSO control data points.” left out

Data set [5] has as its system HPNE cells. The data set is described as above. It counts as cell-based, human. The conditions noted are these: increasing concentrations, days 0-6.
Excerpt: as §1
as §2, with “Cells were allowed to grow over a period of 11-14 days after which they were fixed in 10% formalin, stained with 0.2% Crystal Violet and images were obtained for analysis.” left out, “Data were normalized to DMSO control data points.” left out

Another data set concerns MiaPaCa2 cells. The description is as above. The conditions noted are these: increasing concentrations, days 0-6, dose-dependent. The class given is cell-based, human.
Excerpt: as §1
as §2, with “Cells were allowed to grow over a period of 11-14 days after which they were fixed in 10% formalin, stained with 0.2% Crystal Violet and images were obtained for analysis.” left out, “Data were normalized to DMSO control data points.” left out

The test system of data set [6] is Panc1 cells. Kind of data set: Histone transcriptional read-through by RT-qPCR. The class given is cell-based, human. From the text: (§3) JTE-607 induces RD-histone read-through preferentially in PDAC cells. […] It was sought to validate this transcriptional read-through phenomena experimentally by RT-qPCR. Two RD- and two RI-histones that show differences beyond their 3′ end boundaries were picked for experimental validation (FIGS. 13A and 13B). PCR primers were designed to amplify different regions within and beyond the boundaries of the 3′-UTR (FIG. 13C). […] However, the effect of JTE-607 on transcriptional read-through in HPNE cells was minimal (FIG. 5A). […] Because stable long-term knockdown can force cells to adapt, it was asked whether short-term knockdown of CPSF3 can recapitulate JTE-607 effect on transcriptional read-through. […] Improperly processed histone mRNAs fail to be exported into the cytoplasm for translation, leading to decreased protein levels. […] Next, it was determined whether histone dysregulation might be transcriptionally mediated by dysregulation of transcription factors at the levels of APA or gene expression. MotifMap, an integrative genome-wide map of regulatory motif sites, was used to find putative transcription factors regulating expression of RD histones. 51 transcription factors that have strong binding sites (1000 bp upstream of transcription start site; FDR<0.05) within RD histone promoters (Table S3 (attached as a Large Table)) were found. However, these histone transcription factors are neither APA altered nor differentially expressed upon JTE-607 treatment (FIGS. 13G and 13H). Taken together, these findings indicate that JTE-607 decreases RD histone expression by promoting transcriptional read-through.
(§4) RNA isolation and quantitative PCR. Cells were lysed with TRIzol reagent. RNA was isolated using Direct-zol RNA Miniprep. cDNA was synthesized using iScript cDNA Synthesis Kit. qPCR was conducted with SYBR Green PCR primers mixed with iTaq Universal SYBR Green Supermix and run on CFX connect systems (Bio-Rad). Data were analyzed in Microsoft Excel and graphed using GraphPad Prism (v 9.3.0).

Data set [7] has as its system HPNE cells. Kind of data set: Histone transcriptional read-through by RT-qPCR. It counts as cell-based, human.
Excerpt: as §3, §4

For data set [8] the following is noted: healthy human volunteers; cited from earlier work.
The test system of data set [9] is C-reactive protein, IL-10 and IL-1ra. Particulars: in humans; cited from earlier work.
The next data set concerns HeLa-TI cells. Kind of data set: Silenced GFP reporter derepression (chromatin destabilization) by microscopy and flow cytometry. The class given is cell-based. Particulars: dose- and time-dependent. As for the experimental part:
Therefore, a Micrococcal Nuclease (MNase) assay was performed to assess relative chromatin condensation. In this assay, protein-free DNA is digested by MNase, producing DNA fragmentation patterns that are indicators of whether chromatin is in a condensed or relaxed state. […] To assess chromatin destabilization in a living cell, the HeLa-TI cell line model that has a silenced GFP reporter within a heterochromatic region of the genome was utilized. […] Therefore, GFP expression in HeLa-TI cells was monitored upon JTE-607 treatment by both fluorescence microscopy and flow cytometry.

[10] abbreviates: early or late time points (2 h, 24 h).

SMILES strings stand for the structures. “Also recorded” adds a separate entry of the source.

Data on one compound can be found in US20230355613A1, “METHODS FOR TREATING PANCREATIC DUCTAL ADENOCARCINOMA” (HEALTH RESEARCH, INC., priority 2022, published 2023).

With `CCOC(=O)[C@H](Cc1ccccc1)NC(=O)c1cc(Cl)c(OCCN2CCN(C)CC2)c(Cl)c1O` [JTE-607], the half-inhibitory concentration (IC50) in the data set with Panc1 cells [1] is 2160 nM; in the data set on HPDE cells, 60.1 µM; in the data set with HPNE cells [2], 130 µM; in the data set on PancPat CAFs it was 114 µM; in the data set with C7 CAF, 70 µM. For the same compound, the “H3 and H2B protein levels” value in the data set with Panc1 cells [3] was “reduced both H3 and H2B protein levels”. Also, the effect on proliferation entry is given as “significantly attenuated” in the data set on Panc1 cells [4], “no effect on proliferation” in the data set with HPNE cells [5] and “significantly attenuated” in the data set on MiaPaCa2 cells. For the same compound, the “transcriptional read-through of RD histones” value with Panc1 cells [6] (24 h treatment, normalized to DMSO) is recorded as “up to −20 fold change”; in the data set with HPNE cells [7] (24 h treatment), “minimal”. The “transcriptional read-through of RI histones” value with Panc1 cells [6] (setting [10]) and with HPNE cells [7] (setting [10]) was “did not induce transcriptional read-through” in each case. The adverse events result in data set [8] is given as “no serious adverse effects; also recorded: no severe adverse events reported”. Further, in data set [9], the “endotoxin-induced production of C-reactive protein, IL-10 and IL-1ra” value was “inhibited”. In addition, in the data set on HeLa-TI cells, the GFP expression result is given as “induced GFP expression to levels comparable with CBL0137”.
